{"source": "patent US20060035846A1", "about": "“Preventing/correcting functional disorders of the pilosebaceous unit of mammals” (L'OREAL, priority 2002, published 2006)", "tested_on": "costo-vertebral organ (CVO) of the hamster", "experiment": "CVO test: inhibition of the \"testosterone effect\" by food supplements", "format": "in vivo", "settings": "daily topical application of testosterone to the right CVO from day 50; control animals without food supplement; FIG. 1", "excerpt": "1-A: Principle of the CVO Test:\nThe CVO of the hamster is a cutaneous region rich in pilosebaceous units.\nThe CVO test consists of determining the anti-androgenic action of different compounds on the CVO, i.e., of determining whether said compounds prevent the action of testosterone (Liao S et al., Arch Dermatol Res, 293(4), 200-206 (2001)).\nConsequently, this figure illustrates the “testosterone effect”.\nAs from the fiftieth day (dotted arrow), testosterone was applied daily to the right CVO.\nThe following products were used in the context of the in vivo CVO test such as defined above. These products were tested as food supplements, alone or in combination. • (a) the natural aroma of red wine rich in resveratrol (stilbenes) and proanthocyanidines (flavonoids) in the proportion of 0.11 g in 43 g of food (18% of polyphenols); • (b) a soja extract containing 40% of isoflavonoids, in a proportion of 0.02 g of extract in 44 g of food (40% of isoflavones); • (c) black currant pip oil rich in γ-linolenic acid (polyunsaturated fatty acid 18:3 n-6) in a proportion of 10% by weight in the foodstuff; • (d) the combination of the above three products.", "data": [{"smiles": "C[C@]12CC[C@H]3[C@@H](CCC4=CC(=O)CC[C@@]43C)[C@@H]1CC[C@@H]2O", "note": "[testosterone]", "values": [{"measurement": "size of the right CVO compared with that of the left CVO (\"testosterone effect\")", "result": "increase in the size"}]}]}
